# Measured values: publication PMC12748266, “Testing antimicrobial peptides inhibiting protein synthesis in living E. coli and K. pneumoniae using bio-orthogonal non-canonical amino-acid tagging” (Frontiers in Microbiology, 2025)
# Where two headings read alike, the source gives them in different places. No end group written: not given here.
# Experiments:
# E. coli ATCC 25922 [1] = experiment: microbe, parasite or virus in culture; assay type: cell-based, Escherichia coli; details: for MIC: read-out: MIC
# Procedure: […] Each peptide, diluted at a starting concentration of 128 μM in supplemented M9 medium was added to the first column of wells of a 96-well round-bottom microplate (Sarstedt, Milan, Italy). Serially two-fold dilution (1:1) were performed across subsequent wells to a final volume of 50 μL. 50 μL of bacterial suspension (1 × 10^7 CFU/mL) were then added to each well, to a final bacterial concentration in each well to 5 × 10^6 CFU/mL per well. Untreated bacterial culture was used as growth control, while 100 μL of uninoculated supplemented M9 medium was used to verify the sterility of the medium. The plates were sealed with parafilm to minimize evaporation and incubated at 37 °C for 18 h. The minimum inhibitory concentration (MIC) was visually determined as the lowest peptide concentration in a well with no visible bacterial growth. Data are reported as the mode of at least three independent experiments.
# E. coli ATCC 25922 [2] = experiment: Cell membrane permeabilization, propidium iodide flow cytometry; assay type: cell-based, Escherichia coli; details: compound at its MIC, 40 min, 5 × 10^6 CFU/mL, supplemented M9, mean of n = 3
# Procedure: Membrane permeabilization of bacteria was then assessed by incubating bacteria at 37 °C, in a final volume of 1 mL, with varying concentrations of each peptide or antibiotic used for the BONCAT assay. 5 min before the ending of the selected incubation time (40 min), propidium iodide probe was added to the samples to a final concentration of 10 μg/mL before analysis using a flow cytometer. A positive control consisted of E. coli cells dehydrated with ethanol (as described above), while untreated cells were used as negative control. The fluorescence of untreated cells was used to establish the gating for positive PI-stained cells. Fixed bacterial cells, subjected to the click chemistry reaction to link the Alexa Fluor azide 488 probe, were analysed by flow cytometry and, among the gates-selected ones, only those that tested positive for Propidium Iodide, and thus permeabilized, were considered for the calculation of the mean fluorescence intensity (MFI) of the Alexa Fluor azide 488.
# Samples were analyzed by an Attune NxT® (ThermoFisher) equipped with a blue laser (488 nm) and photomultiplier tubes (PMTs) BL1 (525/50) and BL3 (695/40) to collect fluorescence. All parameters were set in logarithmic scale and the signals were recorded as Area. Forward scattering (FSC) was set to 300 mV, side scattering (SSC) to 350 mV and thresholds to 0.2 for FSC and 0.5 for SSC. The compensation matrix was performed according to the tool software. Hierarchical gates and acquisition flow rate (200 μL/min) were set to avoid coincident events. The files were saved as FCS 3.1 and analysed by FCS Express De Novo software v7. Flow cytometry data are presented as means ± SD from three independent experiments (n = 3).
# [3] = tested on: K. pneumoniae ATCC 700603; experiment: BONCAT: HPG incorporation into newly synthesized proteins, flow cytometry; assay type: cell-based, Klebsiella pneumoniae; details: compound at MIC; for Fluorescence Intensity (% of Control): 10 min pre-incubation then 30 min HPG, untreated = 100%, mean, n ≥ 3
# Procedure: We used a modified protocol from [Lindivat et al. (2020)]. Briefly, overnight cultures of E. coli ATCC 25922 or K. pneumoniae ATCC 700603, prepared as described above, were diluted to a final concentration of 5×10^6 CFU/mL and allowed to adjust for 30 min at 37 °C. The culture was then incubated at 37 °C in the dark for 10 or 30 min in the presence or absence of each peptide or antibiotic at various concentrations, with a final volume of 1 mL. At this point, only in certain specified experimental assays, the compounds were removed from the supernatant by centrifugation (16,000 × g for 5 min) and bacteria were washed and resuspended in fresh supplemented M9 medium. Then, 32 μL of a 500 μM homopropargylglycine (HPG) solution were added to each sample, resulting in a final concentration of 16 μM in a finale volume of 1 mL. Also included in each assay were two untreated controls containing only bacteria and bacteria treated with 16 μM HPG alone, respectively. All samples were then incubated at 37 °C in the dark for 30 min. After incubation, samples were washed once with 1X filtered Phosphate Buffered Saline (PBS) (centrifuged at 16,000 x g for 5 min) and resuspended in PBS. After washing, samples were fixed with formaldehyde (Sigma Aldrich, USA) to a final concentration of 3% in 1 mL for 1 h at 25 °C. Subsequently, the samples were centrifuged at 16,000 x g for 5 min and resuspended in 1 mL of PBS. If not analysed immediately, the fixed samples were stored at 4 °C prior to performing the click chemistry reaction. Samples were centrifugated at 16,000 x g for 5 min and bacteria cells were dehydrated by ethanol that was added sequentially to achieve a final concentration of 50% (v/v) (3 min of incubation), 80% (v/v) (3 min of incubation), and 95% (v/v) (3 min of incubation). After dehydration, the samples were centrifugated (16,000 × g, 5 min) and resuspended in PBS. For cell analysis by SDS-PAGE, the following variations were implemented: bacterial cells were diluted in supplemented M9 medium to a final density of ~ 1 × 10^9 CFU/mL, and HPG was added to the samples at a final concentration of 160 μM. Bacteria were incubated with HPG for 0, 15, 30, 60, or 120 min at 37 °C in the dark.
# The click reaction was carried out according to [Rostovtsev et al. (2002)]. 15 μL of a pre-mix solution (prepared as described above) were added to each sample containing fixed bacteria that had incorporated HPG (30 μL of pre-mix solution in case of samples prepared for SDS-PAGE analysis), resulting in the following final concentrations in each sample: 0.1 mM copper sulfate, 0.5 mM Tris (3-hydroxypropyltriazolylmethyl)amine (THPTA), and 2.5 μM Alexa Fluor azide 488. Additionally, 50 μL of freshly prepared 100 mM sodium ascorbate and 50 μL of 100 mM aminoguanidine were added (100 μL in case of samples prepared for SDS-PAGE analysis), bringing the final volume to 1 mL. The samples were gently inverted once to mix and incubated for 30 min in the dark at 25 °C. […]
# An overnight culture of E. coli ATCC 25922, or of K. pneumoniae ATCC 700603, prepared as described above, was diluted to a final concentration of 5 × 10^6 CFU/mL and allowed to adjust for 30 min at 37 °C under shaking. Membrane permeabilization of bacteria was then assessed by incubating bacteria at 37 °C, in a final volume of 1 mL, with varying concentrations of each peptide or antibiotic used for the BONCAT assay. […] The fluorescence of untreated cells was used to establish the gating for positive PI-stained cells. […]
# [4] = Escherichia coli, ATCC25922, 18 h, supplemented M9 medium, 5 × 10^6 CFU/mL, 18 h, 37 °C, visual, mode of at least three experiments
Compound,"MIC (E. coli ATCC 25922 [1]; Escherichia coli, ATCC25922, 18 h, Mueller Hinton, 2,5x10^5 CFU/mL, 18 h, 37 °C, mode of at least three experiments)","MIC (E. coli ATCC 25922 [1]; Escherichia coli, ATCC25922, 18 h, Mueller Hinton, 5x10^6 CFU/mL, 18 h, 37 °C, mode of at least three experiments)",MIC (E. coli ATCC 25922 [1]; [4]),"Fold increase in MIC on 20-fold increase in cell density (E. coli ATCC 25922 [1]; MHB, 5×10^6 vs 2,5×10^5 CFU/well)",Membrane permeabilization (% PI +cells) (E. coli ATCC 25922 [2]),Membrane permeabilization (% PI +cells) (E. coli ATCC 25922 [2]; listed as Chloramphenicol),Reduction in fluorescence ([3]; 10 min + 30 min HPG),Fluorescence Intensity (% of Control) [3],Membrane permeabilization (% PI +cells) (E. coli ATCC 25922 [2]; listed as Rifampin),"MIC (E. coli ATCC 25922 [1]; Mueller Hinton, 2,5x10^5 CFU/mL, 18 h, 37 °C, mode of at least three experiments)","MIC (E. coli ATCC 25922 [1]; Mueller Hinton, 5x10^6 CFU/mL, 18 h, 37 °C, mode of at least three experiments)","MIC (E. coli ATCC 25922 [1]; supplemented M9 medium, 5 × 10^6 CFU/mL, 18 h, 37 °C, visual, mode of at least three experiments)","MIC (E. coli ATCC 25922 [1]; ATCC 25922, 18 h)"
"O=C(N[C@H](CO)[C@H](O)c1ccc([N+](=O)[O-])cc1)C(Cl)Cl [CHL, Chloramphenicol]",16 µM,64 µM,32 µM,4-8 fold,<1%,0%,,,,,,,
"CO[C@H]1/C=C/O[C@@]2(C)Oc3c(C)c(O)c4c(O)c(c(/C=N/N5CCN(C)CC5)c(O)c4c3C2=O)NC(=O)/C(C)=C\C=C\[C@H](C)[C@H](O)[C@@H](C)[C@@H](O)[C@@H](C)[C@H](OC(C)=O)[C@@H]1C [RIF, Rifampicin]",,,2 µM,,<1%,,did not affect fluorescence,87 % of Control,0%,,,,
RRIRPRPPRLPRPRPR [Bac7(1–16)],,,,,<1%,,,18 % of Control,,1 µM,2 µM,1 µM,
RRIRPRPPRLPRPRPRPLPFPRPGPRPIPRPLPFP [Bac7(1–35)],,,,,<1%,,,6 % of Control,,,,,1 µM
